The assay in a line: Inhibitory activity against secretory Phospholipase A2 (s-PLA2) of Naja naja.

As a reminder, the IC50 is the point on the concentration scale where inhibition reaches its midpoint. Read a low IC50 as inhibition by little substance.

For `COc1ccc2nc(Oc3ccccc3)cc(C(N)=O)c2c1` [6-Methoxy-2-phenoxy-quinoline-4-carboxylic acid amide], the IC50 is 10 µM. As for `COc1ccc2nc(Oc3ccccc3)cc(CC(N)=O)c2c1` [2-(6-Methoxy-2-phenoxy-quinolin-4-yl)-acetamide], the midpoint of inhibition, the IC50, lay at 1 µM.

For the origin of these results see BindingDB's records for doi:10.1016/s0960-894x(01)00229-3 (Peking University, 2001).
